According to publication PMC4608732, “Phosphorylation and Internalization of Lysophosphatidic Acid Receptors LPA1, LPA2, and LPA3” (PLoS ONE, 2015):

Assays:
LPA1 receptor [1] = molecular target: T1, LPA1 receptor (Mus musculus, UniProt P61793); assay: Heterologous (PMA) / homologous (LPA) desensitization of LPA-induced calcium response, LPA1 cells; type: cell-based; details: read-out: IC50, inhibition of LPA-induced calcium response (heterologous desensitization)
T1 construct: expressed in transfected cells
Method: (§1) This procedure has been described previously. Briefly, cells were loaded with 2.5 μM Fura-2 AM in Krebs–Ringer–Hepes containing 0.05% bovine serum albumin (pH 7.4) for 1 h at 37°C and then washed to eliminate unincorporated indicator. Determinations were carried in an AMINCO-Bowman Series 2 luminescence spectrometer, employing 340 and 380 nm excitation wavelengths and an emission wavelength of 510 nm; chopper interval was 0.5 sec. The intracellular calcium concentration was calculated as described by Grynkiewicz et al.. In the experiments where prolonged incubation was required (resensitization studies), cells were stimulated, washed, and the incubation was continued in the presence of Fura-2 AM, to avoid dye depletion.
(§2) Agonists-mediated decreases occurred in a concentration-dependent fashion, with a maximum at the concentration of ~ 100 nM. […] It is worth noticing that the shift in the curves was more pronounced in LPA1- or LPA3-expressing cells, than in those that expressed the LPA2 subtype.
(§3) Plotted are the increases in calcium as the percentage of that obtained in cells preincubated without any agent as mean ± S. E. M. of 6 experiments using different cell preparations.

LPA2 receptor [2] = molecular target: T2, LPA2 receptor (Homo sapiens, UniProt Q9HBW0); assay: Heterologous (PMA) / homologous (LPA) desensitization of LPA-induced calcium response, LPA2 cells; type: cell-based
Method: as §1, §2, §3

LPA3 receptor [3] = molecular target: T3, LPA3 receptor (Homo sapiens, UniProt Q9UBY5); assay: Heterologous (PMA) / homologous (LPA) desensitization of LPA-induced calcium response, LPA3 cells; type: cell-based; details: read-out: IC50, inhibition of LPA-induced calcium response (heterologous desensitization)
T3 sequence (Q9UBY5 1-353): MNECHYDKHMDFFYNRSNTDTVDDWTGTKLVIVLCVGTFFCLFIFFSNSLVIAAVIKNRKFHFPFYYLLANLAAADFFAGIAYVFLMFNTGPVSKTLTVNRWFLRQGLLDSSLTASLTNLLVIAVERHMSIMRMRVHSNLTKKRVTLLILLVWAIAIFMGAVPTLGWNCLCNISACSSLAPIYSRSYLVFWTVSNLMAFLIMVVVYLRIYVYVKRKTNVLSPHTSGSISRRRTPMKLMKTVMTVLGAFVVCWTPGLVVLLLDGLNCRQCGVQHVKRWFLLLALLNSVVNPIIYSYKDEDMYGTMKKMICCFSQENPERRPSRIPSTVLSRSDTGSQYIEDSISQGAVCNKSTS
Method: as §1, §2, §3

LPA1 receptor [4] = molecular target: T1, LPA1 receptor; assay: LPA1 receptor phosphorylation ([32P]Pi labeling, immunoprecipitation); type: cell-based
Method: (§4) The procedure was very similar to that previously described to study LPA1 receptor phosphorylation. In brief, cells were incubated in phosphate-free Dulbecco’s modified Eagle’s medium containing 100 μCi/ml [^32P]Pi for 3 h at 37°C. LPA1- and LPA2-expressing cells were cultured in 6 well plates, whereas those expressing LPA3 receptors were cultured in 10 cm dishes. Labeled cells were stimulated with the agents tested and then washed twice with ice-cold phosphate buffered saline and solubilized in buffer containing 10 mM Tris, 150 mM NaCl, 1% sodium cholate, 1% Nonident P40, protease and phosphatase inhibitors, pH 7.4 [11, 12, 14]. The lysates were incubated overnight with protein A-agarose and anti-GFP serum with constant agitation at 4°C. Samples were washed and the pellets containing the immunocomplexes were solubilized in Laemmli’s sample buffer containing 5% β-mercaptoethanol. Proteins were separated using 10% SDS-PAGE and electrotransferred onto polyvinyliden fluoride membranes. Receptor phosphorylation was analyzed with a Molecular Dynamics Typhoon PhosphorImager and the ImageJ software (http://rsb.info.nih.gov/ij/).

LPA2 receptor [5] = molecular target: T2, LPA2 receptor; assay: LPA2 receptor phosphorylation ([32P]Pi labeling, immunoprecipitation); type: cell-based
Method: as §4

LPA3 receptor [6] = molecular target: T3, LPA3 receptor; assay: LPA3 receptor phosphorylation ([32P]Pi labeling, immunoprecipitation); type: cell-based
LPA1 receptor [7] = molecular target: T1, LPA1 receptor; assay: LPA1 receptor internalization, confocal imaging; type: cell-based; details: 1 μM agent, 30 or 60 min, LPA1 cells
Method: (§5) Cells were seeded at approximately 30% confluence onto glass-bottomed Petri dishes and cultured for 3 h at 37°C in media containing 1% serum. After treatment, cells were washed three times with phosphate buffered saline and fixed with 4% paraformaldehyde in 0.1 M phosphate buffer for 20 min at room temperature; samples were then washed three additional times with phosphate buffered saline. The fluorescent images were acquired with an Olympus Fluoview FV10 confocal microscope with a water-immersion objective (60X). To determine receptor internalization, the plasma membrane was delineated utilizing the differential interference contrast imaging, and fluorescence in this region was quantified employing the ImageJ software. At least 5 or 6 images of different cultures were taken for each condition. Data were normalized as follows: for each experiment, fluorescence (arbitrary units) at the plasma membrane of baseline samples were pooled and the average was considered as 100%.

LPA2 receptor [8] = molecular target: T2, LPA2 receptor; assay: LPA2 receptor internalization, confocal imaging; type: cell-based; details: 1 μM agent, 30 or 60 min, LPA2 cells
Method: as §5

LPA3 receptor [9] = molecular target: T3, LPA3 receptor; assay: LPA3 receptor internalization, confocal imaging; type: cell-based; details: 1 μM agent, 30 or 60 min, LPA3 cells
Method: as §5

ERK 1/2 = ERK 1/2 phosphorylation (Western blotting) in C9 cells overexpressing LPA1-3; type: cell-based, rat; details: 100 ng/ml EGF, 5 min, cells overexpressing LPA1-3
Method: Cells were cultured to near confluence in 6 well plates and stimulated with the agents tested for the times indicated. Total cellular extracts were obtained by lysing the cells in Laemmli’s sample buffer containing 5% β-mercaptoethanol. The cell extracts were subject to 10% SDS-PAGE and transferred to nitrocellulose membranes. Membranes from samples obtained in parallel were incubated overnight at 4°C, with anti-pERK 1/2 (1:2000) or anti ERK 1/2 (1:2000). The membranes were washed and incubated for 1 h at room temperature with a horseradish peroxidase-conjugated secondary antibody (1:10,000) for enhanced chemiluminescence detection.

T1 sequence (P61793 whole entry): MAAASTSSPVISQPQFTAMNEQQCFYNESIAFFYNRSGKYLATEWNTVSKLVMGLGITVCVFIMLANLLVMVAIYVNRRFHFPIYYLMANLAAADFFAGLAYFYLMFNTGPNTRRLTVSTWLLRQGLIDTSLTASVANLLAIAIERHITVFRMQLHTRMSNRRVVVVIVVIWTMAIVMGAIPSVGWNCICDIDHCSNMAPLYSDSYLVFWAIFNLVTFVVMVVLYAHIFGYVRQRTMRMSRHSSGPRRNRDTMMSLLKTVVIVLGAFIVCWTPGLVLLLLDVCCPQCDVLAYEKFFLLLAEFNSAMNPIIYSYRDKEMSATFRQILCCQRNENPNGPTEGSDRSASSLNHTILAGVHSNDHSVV
T2 sequence (Q9HBW0 whole entry): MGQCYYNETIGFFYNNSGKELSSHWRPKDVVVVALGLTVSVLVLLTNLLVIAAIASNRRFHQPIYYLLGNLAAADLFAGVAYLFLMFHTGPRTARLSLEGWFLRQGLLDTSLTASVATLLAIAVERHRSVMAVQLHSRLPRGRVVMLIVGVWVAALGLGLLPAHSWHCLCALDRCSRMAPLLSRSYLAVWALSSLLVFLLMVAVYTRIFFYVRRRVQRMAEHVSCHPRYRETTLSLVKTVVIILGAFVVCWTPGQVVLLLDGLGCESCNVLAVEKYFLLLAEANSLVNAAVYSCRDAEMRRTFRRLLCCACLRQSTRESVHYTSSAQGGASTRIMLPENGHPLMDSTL

CCCCCCCCCCCCCC(=O)O[C@@H]1[C@@H](C)[C@@]2(O)[C@@H](C=C(CO)C[C@]3(O)C(=O)C(C)=C[C@@H]23)[C@@H]2C(C)(C)[C@]12OC(C)=O [PMA, phorbol myristate acetate]
IC50 (LPA1 receptor [1]): 1 to 3 nM | remaining calcium response to LPA (LPA2 receptor [2]; LPA2 cells, highest PMA concentration tested): 30–40% | IC50 (LPA2 receptor [2]; read-out: IC50, inhibition of LPA-induced calcium response (heterologous desensitization)): 3 to 10 nM | IC50 (LPA3 receptor [3]): 3 to 10 nM | EC50 (LPA1 receptor [4]): 3 to 10 nM | time to maximum receptor phosphorylation (LPA1 receptor [4]; 1 μM agent, LPA1 cells): ≤ 5 min | concentration at which receptor phosphorylation saturates (LPA1 receptor [4]; 15 min incubation, LPA1-overexpressing cells): 100 nM | time to maximum receptor phosphorylation (LPA2 receptor [5]; 1 μM agent, LPA2 cells): ≤ 5 min | concentration-response curve, receptor phosphorylation (LPA2 receptor [5]; 15 min incubation, LPA2-overexpressing cells, shift to higher concentrations): no clear saturation was obtained | EC50 (LPA3 receptor [6]): 3 to 10 nM | time to maximum receptor phosphorylation (LPA3 receptor [6]; 1 μM agent, LPA3 cells): ≤ 5 min | concentration at which receptor phosphorylation saturates (LPA3 receptor [6]; 15 min incubation, LPA3-overexpressing cells): 100 nM | receptor internalization (fluorescence at the plasma membrane) (LPA1 receptor [7]): markedly decreasing fluorescence at the plasma membrane level | receptor internalization (decrease in fluorescence at the plasma membrane, compared with other subtypes) (LPA2 receptor [8]): much less intense | receptor internalization (fluorescence at the plasma membrane) (LPA3 receptor [9]): markedly decreasing fluorescence at the plasma membrane level

EGF: epidermal growth factor, obtained from Preprotech (NSDSECPLSHDGYCLHDGVCMYIEALDKYACNCVVGYIGERCQYRDLKWWELR; UniProt P01133 971-1023, looked up)
increase in ERK phosphorylation (ERK 1/2): ~ 4 fold
